Laboratory results taken from patent publication US8476265B2, “Compounds-801” (AstraZeneca AB, priority 2010, dated 2013).

Assays:
[1] = target: T1, Adrenergic β2 (Homo sapiens, UniProt P07550); assay: Adrenergic β2 mediated cAMP production in H292 cells, single concentration 1 μM; type: cell-based; settings: NCI-H292, 1 μM compound, cAMP as percentage of the maximum response generated by 1E-07M formoterol, read-out: β2 % effect @1 uM
T1 construct: Adherent H292 cells are removed from tissue culture flasks by treatment with Accutase™ cell detachment solution; endogenous in cells; host or cells: H292 cells
Protocol: The following experimental procedure was used to measure the beta-2% effect at 1 μM for the compounds of Examples 99-175. Adrenergic p2 Mediated cAMP Production Cell Preparation
H292 cells are grown in 225 cm2 flasks incubator at 37° C., 5% CO2 in RPMI medium containing 10% (v/v) FBS (foetal bovine serum) and 2 mM L-glutamine.
Compounds are prepared by an initial first dilution into DMSO to give 1 mM stock concentration. This is followed by a 1 in 10 dilution of the stock concentration (10 μl stock compound +90 μl DMSO) to give 0.1 mM compound. A compound addition plate is prepared by making a further 1 in 25 dilution in assay buffer (HBSS solution containing 10 mM HEPES pH7.4 and 5 mM glucose) containing 4% dimethylsulfoxide. The final compound concentration in assay is 1 μM.
Adherent H292 cells are removed from tissue culture flasks by treatment with Accutase™ cell detachment solution for 15 minutes. Flasks are incubated for 15 minutes in a humidified incubator at 37° C., 5% CO2. Detached cells are re-suspended in RPMI media (containing 10% (v/v) FBS and 2 mM L-glutamine) at 0.1×10^6 cells per mL. 10000 cells in 100 μL are added to each well of a tissue-culture-treated 96-well plate and the cells incubated overnight in a humidified incubator at 37° C., 5% CO2. The culture media is removed and cells are washed twice with 100 μL assay buffer and replaced with 50 μL assay buffer (HBSS solution containing 10 mM HEPES pH7.4 and 5 mM glucose). Cells are rested at room temperature for 20 minutes after which time 25 μL of rolipram (1.2 mM made up in assay buffer) is added. Cells are incubated with rolipram for 10 minutes after which time 25 μl test compounds are added and the cells are incubated for 60 minutes at room temperature. The final rolipram concentration in the assay is 300 μM and final vehicle concentration is 1% (v/v) dimethylsulphoxide. The reaction is stopped by removing supernatants, washing once with 100 μL assay buffer and replacing with 50 μL lysis buffer. The cell monolayer is frozen at −80° C. for 30 minutes (or overnight).
AlphaScreen™ cAMP Detection
The concentration of cAMP (cyclic adenosine monophosphate) in the cell lysate is determined using AlphaScreen™ methodology. The frozen cell plate is thawed for 20 minutes on a plate shaker then 10 μL of the cell lysate is transferred to a 96-well white plate. 40 μl of mixed AlphaScreen™ detection beads (containing equal volumes of donor beads (pre-incubated with biotinylated cAMP in the dark for 30 minutes) and acceptor beads is added to each well and the plate incubated at room temperature for 3 hours in the dark. The AlphaScreen™ signal is measured using an EnVision spectrophotometer (Perkin-Elmer Inc.) with the recommended manufacturer's settings. Concentration of cAMP produced per well were calculated with reference to the cAMP standard curve determined in the same experiment and expressed as a percentage of the maximum response generated by 1E-07M formoterol.

[2] = target: T2, human muscarinic acetylcholine M3 receptor (Homo sapiens, UniProt P20309); assay: Muscarinic 3 receptor binding assay ([3H]NMS competition, SPA), single concentration 1 μM; settings: 1 μM compound; % inhibition specific [3H]-NMS binding
T2 construct: expressed in transfected cells; host or cells: CHO-K1 (Chinese Hamster Ovary) cell membranes
Protocol: The following experimental procedure was used to determine the M3% inhibition at 1 μM of the compounds of Examples 99-175
Muscarinic 3 Receptor Binding Assay
The activity (% inhibition specific binding) of compounds on the M3 receptor is determined by competition binding of [^3H]N-methyl scopolamine (NMS) to CHO-K1 (Chinese Hamster Ovary) cell membranes expressing the human muscarinic acetylcholine M3 receptor (M3-ACh) in a scintillation proximity assay (SPA) format. SPA beads are precoated with membranes and then incubated at 2 mg of beads per well with 1 μM compound of the invention, [^3H]NMS at 0.1 nM, quarter Kd (experimentally determined dissociation constant) and assay buffer (20 mM HEPES pH 7.4 containing 5 mM MgCl2 and 0.1% (w/v) bovine serum albumin). The assay is conducted in a final volume of 200 μL, in the presence of 1% (v/v) dimethyl sulphoxide (DMSO). Total binding of [^3H]NMS is determined in the absence of competing compound and non-specific binding of [^3H]NMS is determined in the presence of 1 μM atropine. The plates are incubated for 16 hours at room temperature and then read on Wallac Microbeta™ using a normalised ^3H protocol. The compound activity at 1 μM, defined as % inhibition specific [^3H]-NMS binding, is determined.

T1 sequence (P07550 whole entry): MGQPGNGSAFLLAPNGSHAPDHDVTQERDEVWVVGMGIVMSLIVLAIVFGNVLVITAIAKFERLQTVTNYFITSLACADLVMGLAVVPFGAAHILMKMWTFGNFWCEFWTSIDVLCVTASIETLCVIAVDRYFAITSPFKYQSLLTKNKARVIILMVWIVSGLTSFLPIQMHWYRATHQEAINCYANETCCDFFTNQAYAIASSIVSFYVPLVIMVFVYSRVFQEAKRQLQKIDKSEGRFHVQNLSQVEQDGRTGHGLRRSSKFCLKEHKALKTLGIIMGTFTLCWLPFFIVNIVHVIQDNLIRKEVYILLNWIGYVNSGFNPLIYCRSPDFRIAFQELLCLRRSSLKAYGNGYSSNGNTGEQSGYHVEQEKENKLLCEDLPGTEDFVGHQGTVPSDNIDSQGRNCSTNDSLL
T2 sequence (P20309 whole entry): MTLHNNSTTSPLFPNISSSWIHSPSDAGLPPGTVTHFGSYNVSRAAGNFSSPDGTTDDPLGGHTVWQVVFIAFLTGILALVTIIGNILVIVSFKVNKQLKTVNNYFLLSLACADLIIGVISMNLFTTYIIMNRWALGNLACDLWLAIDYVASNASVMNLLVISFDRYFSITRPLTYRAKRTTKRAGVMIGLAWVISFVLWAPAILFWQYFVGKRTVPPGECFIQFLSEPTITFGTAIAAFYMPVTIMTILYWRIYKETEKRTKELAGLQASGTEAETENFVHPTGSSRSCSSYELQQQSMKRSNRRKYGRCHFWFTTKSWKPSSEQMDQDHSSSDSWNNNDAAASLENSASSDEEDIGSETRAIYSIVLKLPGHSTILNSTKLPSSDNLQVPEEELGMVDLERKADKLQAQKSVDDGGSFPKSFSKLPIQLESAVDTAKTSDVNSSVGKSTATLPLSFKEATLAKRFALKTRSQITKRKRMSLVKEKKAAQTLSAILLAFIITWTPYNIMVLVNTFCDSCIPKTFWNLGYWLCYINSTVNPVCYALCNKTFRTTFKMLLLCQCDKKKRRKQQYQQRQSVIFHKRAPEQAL

Compound	percent of formoterol maximum response at 1 µM [1] [%]	inhibition at 1 µM [2] [%]
COCCOc1ccc(C(=O)N2CCOC3(CCN(Cc4cccc(CCOCCC(=O)N(CCNCCc5ccc(O)c6c5OCC(=O)N6)C5CCCCC5)c4)CC3)C2)cc1 [Example 173, N-Cyclohexyl-N-(2-(2-(5-hydroxy-3-oxo-3,4-dihydro-2H-benzo[b][1,4]oxazin-8-yl)ethylamino)ethyl)-3-(3-((4-(4-(2-methoxyethoxy)benzoyl)-1-oxa-4,9-diazaspiro[5.5]undecan-9-yl)methyl)phenethoxy)propanamide]	82	95
O=C1COc2c(CCNCCN(C(=O)CCOCCc3cccc(CN4CCC5(CC4)CN(C(=O)c4[nH]nc6c4CCCC6)CCO5)c3)C3CCCCC3)ccc(O)c2N1 [Example 123, N-Cyclohexyl-N-(2-(2-(5-hydroxy-3-oxo-3,4-dihydro-2H-benzo[b][1,4]oxazin-8-yl)ethylamino)ethyl)-3-(3-((4-(4,5,6,7-tetrahydro-2H-indazole-3-carbonyl)-1-oxa-4,9-diazaspiro[5.5]undecan-9-yl)methyl)phenethoxy)propanamide]	97	99
O=C1COc2c(CCNCCN(C(=O)CCOCCc3cccc(CN4CCC5(CC4)CN(C(=O)[C@@H](O)Cc4ccccc4)CCO5)c3)C3CCCCC3)ccc(O)c2N1 [Example 134, (S)-N-Cyclohexyl-N-(2-(2-(5-hydroxy-3-oxo-3,4-dihydro-2H-benzo[b][1,4]oxazin-8-yl)ethylamino)ethyl)-3-(3-((4-(2-hydroxy-3-phenylpropanoyl)-1-oxa-4,9-diazaspiro[5.5]undecan-9-yl)methyl)phenethoxy)propanamide]	89	97
Cc1cc(C)n2nc(C(=O)N3CCOC4(CCN(Cc5cccc(CCOCCC(=O)N(CCNCCc6ccc(O)c7c6OCC(=O)N7)C6CCCCC6)c5)CC4)C3)cc2n1 [Example 142, N-Cyclohexyl-3-(3-((4-(5,7-dimethylpyrazolo[1,5-a]pyrimidine-2-carbonyl)-1-oxa-4,9-diazaspiro[5.5]undecan-9-yl)methyl)phenethoxy)-N-(2-(2-(5-hydroxy-3-oxo-3,4-dihydro-2H-benzo[b][1,4]oxazin-8-yl)ethylamino)ethyl)propanamide]	83	100
O=C1COc2c(CCNCCN(C(=O)CCOCCc3cccc(CN4CCC5(CC4)CN(C(=O)C(O)C(F)(F)F)CCO5)c3)C3CCCCC3)ccc(O)c2N1 (stereo not drawn) [Example 152, N-Cyclohexyl-N-(2-(2-(5-hydroxy-3-oxo-3,4-dihydro-2H-benzo[b][1,4]oxazin-8-yl)ethylamino)ethyl)-3-(3-((4-(3,3,3-trifluoro-2-hydroxypropanoyl)-1-oxa-4,9-diazaspiro[5.5]undecan-9-yl)methyl)phenethoxy)propanamide]	112	100
CC(C)C[C@H](O)C(=O)N1CCOC2(CCN(Cc3cccc(CCOCCC(=O)N(CCNCCc4ccc(O)c5c4OCC(=O)N5)C4CCCCC4)c3)CC2)C1 [Example 137, (S)-N-Cyclohexyl-N-(2-(2-(5-hydroxy-3-oxo-3,4-dihydro-2H-benzo[b][1,4]oxazin-8-yl)ethylamino)ethyl)-3-(3-((4-(2-hydroxy-4-methylpentanoyl)-1-oxa-4,9-diazaspiro[5.5]undecan-9-yl)methyl)phenethoxy)propanamide]	88	100
CCCC(C)C(=O)N1CCOC2(CCN(Cc3cccc(CCOCCC(=O)N(CCNCCc4ccc(O)c5c4OCC(=O)N5)C4CCCCC4)c3)CC2)C1 (stereo not drawn) [Example 160, N-Cyclohexyl-N-(2-(2-(5-hydroxy-3-oxo-3,4-dihydro-2H-benzo[b][1,4]oxazin-8-yl)ethylamino)ethyl)-3-(3-((4-(2-methylpentanoyl)-1-oxa-4,9-diazaspiro[5.5]undecan-9-yl)methyl)phenethoxy)propanamide]	79	99
COC(C(=O)N1CCOC2(CCN(Cc3cccc(CCOCCC(=O)N(CCNCCc4ccc(O)c5c4OCC(=O)N5)C4CCCCC4)c3)CC2)C1)c1ccccc1 (stereo not drawn) [Example 171, N-Cyclohexyl-N-(2-(2-(5-hydroxy-3-oxo-3,4-dihydro-2H-benzo[b][1,4]oxazin-8-yl)ethylamino)ethyl)-3-(3-((4-(2-methoxy-2-phenylacetyl)-1-oxa-4,9-diazaspiro[5.5]undecan-9-yl)methyl)phenethoxy)propanamide]	94	96

More lines, now with the values ahead:

percent of formoterol maximum response at 1 µM [1] [%]	inhibition at 1 µM [2] [%]	Compound
97	101	O=C1COc2c(CCNCCN(C(=O)CCOCCc3cccc(CN4CCC5(CC4)CN(C(=O)c4n[nH]c6ccccc46)CCO5)c3)C3CCCCC3)ccc(O)c2N1 [Example 120, 3-(3-((4-(1H-Indazole-3-carbonyl)-1-oxa-4,9-diazaspiro[5.5]undecan-9-yl)methyl)phenethoxy)-N-cyclohexyl-N-(2-(2-(5-hydroxy-3-oxo-3,4-dihydro-2H-benzo[b][1,4]oxazin-8-yl)ethylamino)ethyl)propanamide]
96	100	O=C1COc2c(CCNCCN(C(=O)CCOCCc3cccc(CN4CCC5(CC4)CN(C(=O)[C@H](O)c4ccccc4)CCO5)c3)C3CCCCC3)ccc(O)c2N1 [Example 166, (R)-N-Cyclohexyl-3-(3-((4-(2-hydroxy-2-phenylacetyl)-1-oxa-4,9-diazaspiro[5.5]undecan-9-yl)methyl)phenethoxy)-N-(2-(2-(5-hydroxy-3-oxo-3,4-dihydro-2H-benzo[b][1,4]oxazin-8-yl)ethylamino)ethyl)propanamide]
99	100	O=C1COc2c(CCNCCN(C(=O)CCOCCc3cccc(CN4CCC5(CC4)CN(C(=O)c4cccc(F)c4F)CCO5)c3)C3CCCCC3)ccc(O)c2N1 [Example 110, N-Cyclohexyl-3-(3-((4-(2,3-difluorobenzoyl)-1-oxa-4,9-diazaspiro[5.5]undecan-9-yl)methyl)phenethoxy)-N-(2-(2-(5-hydroxy-3-oxo-3,4-dihydro-2H-benzo[b][1,4]oxazin-8-yl)ethylamino)ethyl)propanamide]
98	101	O=C1COc2c(CCNCCN(C(=O)CCOCCc3cccc(CN4CCC5(CC4)CN(C(=O)c4cccs4)CCO5)c3)C3CCCCC3)ccc(O)c2N1 [Example 153, N-Cyclohexyl-N-(2-(2-(5-hydroxy-3-oxo-3,4-dihydro-2H-benzo[b][1,4]oxazin-8-yl)ethylamino)ethyl)-3-(3-((4-(thiophene-2-carbonyl)-1-oxa-4,9-diazaspiro[5.5]undecan-9-yl)methyl)phenethoxy)propanamide]
